“And” between values parts separate entries of the source, which are not always exact repeats. Equal values may be shown once.
Tests used:
[1] = Particle size distribution by laser diffraction with dry dispersion; format: physicochemical; conditions: after micronization, dry measurement (3 or 4 bar)
Protocol: All measurements cited in the above tables were obtained by laser diffraction with dry dispersion using compressed air. Measuring in aqueous suspension with surfactants may lead to smaller particle sizes (×90 up to 1 μm smaller).
The particle size analysis data are usually reported as cumulative undersized distribution by volume. The symbol x is used to denote the particle size, which is defined as diameter of a volume equivalent sphere. Most common characteristic values are calculated from the particle size distribution by interpolation. Frequently used are the particle sizes at the undersize values of 10%, 50% and 90% of the volume distribution, denoted as x10, x50 and x90. x50 is also known as median particle size. The symbol d is widely used to designate the particle size, thus the symbol x may be replaced by the symbol d.

[2] = test system: isolated Langendorff-perfused rat heart; assay: Isolated perfused heart according to Langendorff: perfusion pressure and wash-out score (C-1.2); conditions: 100 nmol/l
Protocol: Male Wistar rats (strain HsdCpb:WU) with a body weight of 200-250 g were anaesthetized with Narcoren® (100 mg/kg). The thorax was opened and the heart was then exposed, excised and connected to a Langendorff apparatus by placing a cannula into the aorta. The heart was perfused retrogradely at 9 ml/min at constant flow with a Krebs-Henseleit buffer solution (gassed with 95% O2 and 5% CO2, pH 7.4, 35° C.; composition in mmol/l: NaCl 118; KCl 3; NaHCO3 22; KH2PO4 1.2; MgSO4 1.2; CaCl2 1.8; Glucose 10; Na pyruvate 2). A pressure transducer registered the perfusion pressure in the perfusion system. The left ventricular pressure (LVP) was measured using a second pressure transducer connected to a water-filled balloon which was inserted into the left ventricle via the left atrium. The end diastolic pressure was initially set to 8 mm Hg by adjusting the volume of the balloon. The hearts were spontaneously beating. The signals from the pressure transducer were amplified, registered by a personal computer (Powerlab Chart software, ADInstruments).
Then the hearts were perfused for a further 120 min without the test substance (wash-out phase). The reversibility of the effect (wash-out score) was calculated as a percentage of the PP recovery after 60 min of washout related to the maximum drop of PP induced by the test compound. The wash-out score obtained in this manner was taken as a measure for the residence time of the test substance at the site of action.

[3] = test system: thromboxane analog U46619 induced PAH in minipigs; assay: Haemodynamics (PAP, BP) in the anesthetized thromboxane challenged PAH minipig after inhaled (nebulized) application (C-2.1); format: in vivo, Göttingen minipig; conditions: inhaled 100 μg/kg
Protocol: Experiments were carried out in anesthetized Göttingen minipigs, anesthetized rats and conscious, telemetrically instrumented dogs. Acute pulmonary hypertension was induced for example by infusion of a thromboxane A2 analogon, by acute hypoxia treatment or hypoxia treatment over a number of weeks and/or by administration of monocrotaline. Test substances were applied via nebulization using the Nebutec® or Aeroneb® Pro nebulizer system, and/or by means of powder and/or solution applicators for experimental intratracheal administration (Liquid MicroSprayer®, Dry Powder Insufflator™, MicroSprayer®, Penn-Century Inc., Wyndmoor, PA, USA) or after solid nebulization inserted into the inspiration arm of the ventilation. Compounds were employed as solids or solutions depending on the molecular structure and the technical possibility depending on the experiment. The haemodynamic signals were recorded and evaluated by means of pressure transducers/amplifiers (Combitransducer B. Braun, Melsungen, Germany or CardioMEMS Inc., Atlanta, GA, USA) and Ponemah® or CardioMems® as data aquisition software. After long-term experiments (for example monocrotaline rat), it is also possible to carry out a histological evaluation.
Healthy Gottingen Minipigs® Ellegaard (Ellegaard, Denmark) of both sexes and having a weight of 2-6 kg were used. The animals were sedated by i.m. administration of about 25 mg/kg ketamine and about 10 mg/kg azaperone. Anaesthesia was initiated by i.v. administration of about 2 mg/kg ketamine and about 0.3 mg/kg midazolam. Maintenance of anaesthesia was by i.v. administration of about 7.5-30 mg/kg/h ketamine and about 1-4 mg/kg/h midazolam (rate of infusion 1-4 ml/kg/h) and about 150 μg/kg/h pancuronium bromide (for example Pancuronium-Actavis). After intubation, the animals were ventilated by the ventilator at a constant respiratory volume (10-12 ml/kg, 35 breaths/min; Avea®, Viasys Healthcare, USA, or Engstrom Carestation, GE Healthcare, Freiburg, Germany) such that an end-tidal CO2 concentration of about 5% was achieved. Ventilation was performed with room air, enriched with about 40% oxygen (normoxia). For the measurement of the haemodynamic parameters such as pulmonary arterial pressure (PAP), blood pressure (BP) and heart rate (HR), catheters were inserted into the carotid artery to measure the blood pressure, and a Swan-Ganz® catheter was introduced in a flow-directed manner via the jugular vein into the pulmonary artery. The haemodynamic signals were recorded and evaluated by means of pressure transducers (Combitransducer, B. Braun, Melsungen, Germany)/amplifiers and Ponemah® as data aquisition software.
After the instruments have been placed into the animals, continuous infusion of a thromboxane A2 analog was initiated to increase the pulmonary arterial pressure. […] D0400, or Cayman Chemical Company, cat. no. 16440), dissolved in physiological saline, were infused to achieve an increase of the mean pulmonary arterial pressure to values of over 25 mmHg. 30 minutes after the start of the infusion, a plateau was reached, and the experiment was started.
The test substances were administered as i.v. infusion or by inhalation. For the preparation of the solution for inhalation, the following procedure was adopted: For an animal having a weight of 4 kg, to prepare the stock solution (300 μg/kg), 1.2 mg of the test compound were weighed out and dissolved in a total volume of 3 ml (1% DMSO, 99% 0.2% strength citric acid solution, 1 N aqueous sodium hydroxide solution to adjust the pH to 8). The solution was then diluted to the concentration employed using 0.2% strength citric acid which had been adjusted to pH 8 beforehand with aqueous sodium hydroxide solution. In each test, 3 ml of the solution of test compound per 4 kg animal were nebulized in the inhalation arm of the respiratory circuit using the Aeroneb® Pro nebulizer system. The mean nebulization time was about 7 min from the start of the nebulization.

rabbit saphenous artery = assay: Vasorelaxant effect in vitro: phenylephrine-induced contraction of rabbit saphenous artery rings (C-1.1); conditions: mean +/− SEM
Protocol: Rabbits were anaesthetized and sacrificed by intravenous injection of thiopental sodium (about 50 mg/kg) and exsanguinated. The saphenous artery was removed and divided into rings 3 mm wide. The rings were mounted singly on in each case a pair of triangular hooks open at the end and made of 0.3 mm-thick special wire (Remanium®). Each ring was placed under an initial tension in 5 ml organ baths with Krebs-Henseleit solution which was at 37° C., was gassed with carbogen and had the following composition: NaCl 119 mM; KCl 4.8 mM; CaCl2)×2 H2O 1 mM; MgSO4×7 H2O 1.4 mM; KH2PO41.2 mM; NaHCO325 mM; glucose 10 mM; bovine serum albumin 0.001%. The force of contraction was detected with Statham UC2 cells, amplified and digitized via A/D converters (DAS-1802 HC, Keithley Instruments, Munich) and recorded in parallel on chart recorders. Contractions were induced by addition of phenylephrine.
The concentration necessary to reduce the contraction reached in the preceding control by 50% was calculated from this (IC50). The standard application volume was 5 μl. The proportion of DMSO in the bath solution corresponded to 0.1%.

For O.O=C(O)c1ccc(CCN(CCc2ccccc2OCc2ccc(-c3ccc(C(F)(F)F)cc3)cc2Cl)[C@H]2CCCc3nc(C(=O)O)ccc32)cc1 [example 8e], the “PSD X10” value [1] was “X10: 0.7 μm,”, the “PSD X50” value [1] was “X50: 2.1 μm,” and the “PSD X90” value [1] was “X90: 6.1 μm”.

With COC(=O)N(C)c1c(N)nc(-c2nn(Cc3ccccc3F)c3ncccc23)nc1N [Riociguat (comparative example 2)] the “Wash-out score (%) after 60 min” value [2] was 98.0%, the “Perfusion pressure (%) (timepoint at 20 min) Mean” value ([2]; isolated Langendorff-perfused rat heart) was 55.4% and the “Perfusion pressure (%) (timepoint at 90 min) Mean” value ([2]; wash-out phase) was 99.9%. For the same compound, the “% changes in BP vs baseline” value ([3]; 0 min vs. start inhalation) was 100% and 102%, the “% changes in PAP vs baseline” value ([3]; 0 min vs. start inhalation) was 99% and the “% changes in BP vs baseline” value ([3]; 10 min vs. start inhalation) was 91% and 86%. The “% changes in PAP vs baseline” value ([3]; 10 min vs. start inhalation) was 95% and 92%, the “% changes in BP vs baseline” value ([3]; 20 min vs. start inhalation) was 91% and 85% and the “% changes in PAP vs baseline” value ([3]; 20 min vs. start inhalation) was 94% and 90%. For the same compound, the “% changes in BP vs baseline” value ([3]; 30 min vs. start inhalation) was 94%, the “% changes in PAP vs baseline” value ([3]; 30 min vs. start inhalation) was 94% and 90% and the “% changes in BP vs baseline” value ([3]; −5 min vs. start inhalation) was 100%. For the same compound, the “% changes in PAP vs baseline” value ([3]; −5 min vs. start inhalation) was 99% and 101%.

With O.O=C(O)c1ccc(CCN(CCc2ccccc2OCc2ccc(-c3ccc(C(F)(F)F)cc3)cc2Cl)[C@H]2CCCc3nc(C(=O)O)ccc32)cc1 [8c] the “PSD X10” value [1] was “X10: 0.4 μm,”, the “PSD X50” value [1] was “X50: 1.8 μm,” and the “PSD X90” value [1] was “X90: 4.8 μm”.

In the case of O.O=C(O)c1ccc(CCN(CCc2ccccc2OCc2ccc(-c3ccc(C(F)(F)F)cc3)cc2Cl)[C@H]2CCCc3nc(C(=O)O)ccc32)cc1 [8g], the “PSD X10” value [1] is reported as “X10: 0,5 μm,”, the “PSD X50” value [1] is reported as “X50: 1.8 μm,” and the “PSD X90” value [1] is reported as “X90: 3.9 μm”.

In the case of O.O=C(O)c1ccc(CCN(CCc2ccccc2OCc2ccc(-c3ccc(C(F)(F)F)cc3)cc2Cl)[C@H]2CCCc3nc(C(=O)O)ccc32)cc1 [8d], the “PSD X10” value [1] is reported as “X10: 0.5 μm,”, the “PSD X50” value [1] is reported as “X50: 2.3 μm,” and the “PSD X90” value [1] is reported as “X90: 9.6 μm”.

With O=C(O)CCCCN(CCc1ccccc1OCc1ccc(CCc2ccccc2)cc1)Cc1ccc(C(=O)O)cc1 [comparative example 1 (Cinaciguat)] the “% contraction (PE-induced contraction of rabbit saphenous artery)” value (“% contraction” below) (rabbit saphenous artery; 10^−6 M/L, incubation time 0.5 h) was 19 ± 6.1%, the “% contraction” value (rabbit saphenous artery; 10^−7 M/L, incubation time 0.5 h) was 28 ± 4.2% and the “% contraction” value (rabbit saphenous artery; 10^−7 M/L, incubation time 2.5 h) was 33 ± 5.8%. For the same compound, the “% contraction” value (rabbit saphenous artery; 10^−8 M/L, incubation time 0.5 h) was 54 ± 5.2%, the “% contraction” value (rabbit saphenous artery; 10^−8 M/L, incubation time 2.5 h) was 48 ± 6.0% and the “% contraction” value (rabbit saphenous artery; 10^−9 M/L, incubation time 0.5 h) was 85 ± 4.2%. For the same compound, the “% contraction” value (rabbit saphenous artery; 10^−9 M/L, incubation time 2.5 h) was 75 ± 4.6%, the “% contraction” value (rabbit saphenous artery; 10^−10 M/L, incubation time 0.5 h) was 101 ± 1.7% and the “% contraction” value (rabbit saphenous artery; 10^−10 M/L, incubation time 2.5 h) was 93 ± 2.6%. For the same compound, the “% contraction” value (rabbit saphenous artery; 10^−11 M/L, incubation time 0.5 h) was 97 ± 1.2%.

With “Ethyl 5-{[2-(2-{[3-chloro-4′-(trifluoromethyl)biphenyl-4-yl]methoxy}phenyl)ethyl]amino}-5,6,7,8-tetrahydroquinoline-2-carboxylate [example 8a]” the “PSD X10” value [1] was “X10: 0.4 μm,”, the “PSD X50” value [1] was “X50: 1.7 μm,” and the “PSD X90” value [1] was “X90: 4.2 μm”.

In the case of O.O=C(O)c1ccc(CCN(CCc2ccccc2OCc2ccc(-c3ccc(C(F)(F)F)cc3)cc2Cl)[C@H]2CCCc3nc(C(=O)O)ccc32)cc1 [8f], the “PSD X10” value [1] is reported as “X10: 0.6 μm,”, the “PSD X50” value [1] is reported as “X50: 2.4 μm,” and the “PSD X90” value [1] is reported as “X90: 6.3 μm”.

In the case of O.O=C(O)c1ccc(CCN(CCc2ccccc2OCc2ccc(-c3ccc(C(F)(F)F)cc3)cc2Cl)[C@H]2CCCc3nc(C(=O)O)ccc32)cc1 [example 8b], the “PSD X10” value [1] is reported as “X10: 0.7 μm,”, the “PSD X50” value [1] is reported as “X50: 1.9 μm,” and the “PSD X90” value [1] is reported as “X90: 5.0 μm”.
